The assay concerns Caco-2 cells. Put plainly: Innate immune activation in Caco-2 cells (NLRP3, caspase-1, IL-15, NF-κB p65). It is filed as cell-based, human. As for the experimental part: Human colon adenocarcinoma-derived Caco-2 and T84 cells were obtained from the ATCC. Cells were maintained in T25 flask in Modified Eagle Medium (MEM) for Caco-2, or Ham's F12+DMEM (1:1) for T84, supplemented with 10% fetal bovine serum (FBS), 2 mM Glutamine+1% Non Essential Amino Acids (NEAA) and the antibiotics penicillin\streptomycin (100 units/ml) (all reagents from Lonza) (Luciani, A., et al. 2010. Cells were grown in Transwells (Corning, 3470 or 3460) under the normal condition (Luciani, A., et al. 2012). Briefly, 8×10^4 or 5×10^5 cells were seeded in 6.5-mm diameter or 12-mm diameter, respectively, and grown until the RT reached 800 to 1,200 Ω·cm2. Transwells with a pore size of 0.4 μm were used. Medium in both the apical and basolateral chambers was changed every other day. Cells were treated with 20 μg/ml of either α-gliadin peptide P31-43 or […]-69 or scrambled PGAV or modified P31-43 either biotin-tagged or not, for different time point (from 1 h short challenge up to 24 h). Cells were also treated with 50 or 100 μg/ml of […]-68 or PGAV peptides for 3 h. Caco-2 or T84 cells were also treated with: CFTR potentiators VX-770 (10 μM) or VX-532 (20 μM) (Selleck chemicals) or Genistein (10 μM) (Sigma-Aldrich) or in presence or absence of CFTR inhibitor172 (CFTRinh172, 20 μM) or 3-methyl-adenine (3-MA, 20 μM) (Calbiochem), Z-DON (20 nM, Zedira) or BAPTA-AM (10 μM, Calbiochem). The whole lysate or membrane fraction proteins of cell lines and mice intestine homogenates were obtained from treated and untreated cells or mice as described. The equal amount of protein were resolved by SDS-PAGE gel and blotted with antibodies against: SQSTM1, (Sigma Aldrich, 108k4767) 1:1000, PPARγ (Santa Cruz Biotechnology, sc7273) 1:500, BECN1 (Abcam, ab58878) 1:1000, CFTR clone M3A7 (Abcam, ab4067) 1:500, phospho-ERK1/2 (php42/44, Cell Signaling Technology, #91101) 1:1000, UVRAG (Santa Cruz Biotechnology sc8215) 1:1000, NHERF-1 (BD, 611161) 1:1000, EZRIN (BD, 610603) 1:1000, hVps34 (SigmaV9764) 1:300, biotin (Abcam, ab1227) 1:2000, PKAr2a (BD, 610625) 1:500, Ubiquitin (Cell Signaling clone P4D1, #3936) 1:1000, CHIP (Calbiochem PC711) 1:500, Caspase-1 p10 (M-20) (Santa Cruz Biotechnology, sc-514) 1:200, NLRP3 (Abcam, ab4207), 1:500, IDO1 (monoclonal; cv152) 1:1000^[80], used as primary antibodies. Normalization was performed by probing the membrane with anti-β-actin (Cell Signaling, #4970) 1:1000, anti-Gapdh (Sigma-Aldrich, G8795) 1:1000 and anti-flottilin (Abcam ab15148) 1:1000 antibodies. Immunoprecipitations of endogenous proteins were performed on 500 μg of lysates from Caco-2 cells. The proteins were incubated for 12-18 h at 4° C. with 10 ug\ml of specific antibody followed by the addition of Protein A/G-agarose beads for 4 h at 4° C. The beads were then washed three times with lysis buffer and Laemmli's sample buffer was added to the samples. The membranes were then blotted with: CFTR clone CF3 (Abcam, ab2784) 1:1000, TG2 (clone CUB7402; NeoMarkers) 1:1000, CHIP (Calbiochem PC711) 1:500, Ubiquitin (Cell Signaling clone P4D1 3936), isopeptide (Abcam 422) 1:1000, PKAR2 (BD 610625) 1:500. For cytoplasmic and nuclear extracts human colorectal carcinoma Caco-2 cells were harvested, washed in cold PBS twice, and centrifuged at 6000 rpm for 5 min in cold room to collect pellets. […] The protein concentrations were measured by Bradford protein assay (Protein Reagent, Bio-Rad). […]

As for `CC(C)(C)c1cc(C(C)(C)C)c(NC(=O)c2c[nH]c3ccccc3c2=O)cc1O` [VX-770, N-(2,4-di-tert-butyl-5-hydroxyphenyl)-4-oxo-1,4-dihydroquinoline-3-carboxamide], under “Caco-2 cells”, the “effect on P31-43-induced NF-κB p65 nuclear translocation” value is listed as “suppressed”, the “effect on P31-43-induced NLRP3 expression” value is reported as “prevented” and the “effect on P31-43-induced caspase-1 cleavage” value is “prevented”. The “effect on P31-43-induced production of IL-15” value (Caco-2 cells, ELISA, p<0.001) was “prevented the P31-43-induced production of IL-15”.

For the compound “α-gliadin peptide LGQQQPFPPQQPY (SEQ ID 1), induces an enterocyte stress response (P31-43 sequence of alpha-gliadin)”, for the setting “Caco-2 cells after incubation with peptide”, the “NF-κB p65 translocation into the nucleus” value is recorded as “NF-κB p65 translocation into the nucleus was observed”.

These data come from patent US20200206198A1, “CFTR CHANNEL ACTIVATOR FOR USE IN THE TREATMENT AND/OR PREVENTION OF GLUTEN SENSITIVITY CONDITIONS” (priority 2017, published 2020).
